“Also recorded” adds a separate entry of the source.
Tests used:
TNF [1] = target: T1, TNF (Homo sapiens, UniProt P01375); experiment: Biacore SPR fragment binding to immobilised TNF; parameters: Human TNF (CID2043, UniProt P01375 residues 77–233); 6XHis-Smt3 (N, cleaved yes); host or cells: E. coli TOP10; conditions: SPR fragment screen; concentration-dependent response
Text: (§1) BIA (Biomolecular Interaction Analysis) uses SPR to measure the binding of compounds to a protein immobilised on a chip surface. For this purpose a Biacore A100/4000 (GE Healthcare) was used. A CM5 sensor was immobilised via amine coupling on flow cell 1 with human Fc antibody domain (10k response units; kRU) and TNFR-Fc captured (2.5 kRU), flow cell 2 TNF (11 kRU), flow cell 3 was left blank (for non-specific binding), flow cell 4 TNFR-Fc (10 kRU), and flow cell 5 goat anti-human Fc 16 kRU). The sensor surface was then equilibrated in HBS-P (10 mM HEPES pH 7.4, 0.15 M NaCl, 0.005% Surfactant P20, BIAcore, GE Healthcare) with 5% DMSO for at least 5 h. Compounds were diluted from 100 mM stocks into DMSO matched buffer and then flowed over the immobilised flow cells at a concentration of 250 µM at the maximum flow rate of 30 μL/min. Background subtraction binding curves were analysed using the Biacore A100 BIA evaluation software version 1.1 following standard procedures.
Target sequence in this assay (P01375 77-233): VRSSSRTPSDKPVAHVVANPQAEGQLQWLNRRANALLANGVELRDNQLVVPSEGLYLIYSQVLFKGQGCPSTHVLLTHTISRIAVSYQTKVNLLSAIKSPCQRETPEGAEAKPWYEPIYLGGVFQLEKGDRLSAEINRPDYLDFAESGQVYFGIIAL

TNF [2] = target: T1, TNF; experiment: Biacore binding with and without non-ionic detergent; parameters: stabilise an asymmetrical form of the soluble TNF trimer; conditions: 0.01% v/v Triton X-100 and 0.025% v/v Tween-80; Biacore T200
Experimental: Experiments to show any effect of addition of non-ionic detergent were performed on a Biacore, with human TNF on the solid phase and compounds in solution phase in the presence and absence of 0.01% v/v Triton X-100 and 0.025% v/v Tween-80.
Three Biacore T200s were treated with sodium hypochlorite to remove any traces of detergent. Each machine was equilibrated in either HBS with no detergent (control), HBS:
Tween-P80 (0.025% v/v) or HBS: Triton X-100 (0.01% v/v). Human TNF was tethered to ~ 2000 RU before equilibration in the equivalent control or detergent buffers plus 1% DMSO. […]
were fitted to a BIAevaluation T200 1:1 algorithm and the fitted data shown. […]
Target sequence in this assay (P01375 77-233 limits assumed): as the sequence (P01375 77-233) above

TNF [3] = target: T1, TNF; experiment: Biacore kinetics of binding; parameters: Human TNF (CID2043, UniProt P01375 residues 77–233); 6XHis-Smt3 (N, cleaved yes); host or cells: E. coli TOP10; conditions: SPR, multicycle, Biacore T100
Experimental: Surface plasmon resonance using a Biacore T100/T200 was used to measure the association rate constant (ka), the dissociation rate constant (kd) and the affinity (KD) of compounds. TNF (VCID 2043 Beryllium) was immobilised to approximately 5 kRU as described above and equilibrated for at least 5 h in HBS P + buffer with 5% DMSO. UCB-6876 was serially diluted from 187.5 µM, flowing over the immobilised TNF at 50 µL/min for 3 min before allowing full dissociation under flow for at least 6 min. […] […] The compounds were allowed to dissociate for 2 h under flow.
Target sequence in this assay (P01375 77-233): as above

[4] = tested on: TNFR1 extracellular domain and control proteins; experiment: Biacore SPR binding to control surfaces; conditions: capture antibody plus TNFR1, capture antibody
Text: as §1

TNF [5] = target: T1, TNF; experiment: Mass spectrometry monomer exchange; type: biochemical; parameters: stabilise an asymmetrical form of the soluble TNF trimer; conditions: human TNF pre-incubated with compound, mixed 1:1 with mouse TNF
Experimental: Mouse and human TNF protein were made up to a concentration of 2 mg/mL (20 mM ammonium acetate, pH 7.4) and desalted and buffer-exchanged using Zeba columns. The protein was then diluted to 20 μM in ammonium acetate buffer. An aliquot of each was mixed 1:1 and analysed at various time points. Human TNF was incubated (1:1, v/v) with compound (20 μΜ), 4% DMSO in 20 mM ammonium acetate) and mixed with mouse TNF (1:1) and tested at various time points using an Advion Nanomate (for sample introduction by nanospray) and ThermoFisher Exactive Plus EMR Mass Spectrometer. The following settings were utilised on the mass spectrometer: scan range 1000 to 8000 m/z; spray voltage 1.5 kV; capillary temperature 150 °C; S-lens RF 200; source DC offset 25 V, injection flatapole 7 V; inter flatapole 6 V; bent flatapole DC 6 V; EMR mode on. Data were processed using ThermoFisher Protein Deconvolution 3.0.
Target sequence in this assay (P01375 77-233 limits assumed): as the sequence (P01375 77-233) above

SMILES: Cc1ccc(C)c(Cn2c(CO)nc3ccccc32)c1 [UCB-6876]
- binding to immobilised TNF (TNF [1]): bound to TNF; also recorded: specifically binds to immobilised TNF
- effect of non-ionic detergents on binding to human TNF (TNF [2]): does not alter the binding
- Kd (TNF [3]; read-out: KD (kd/ka)): 22 µM
- kon (TNF [3]; read-out: association rate constant ka): 923 M⁻¹ s⁻¹
- koff (TNF [3]; read-out: dissociation rate constant kd): 0.02 s⁻¹
- binding to TNFR1 and control proteins (selectivity) [4]: selectivity over the TNFR1 extracellular domain and control proteins; also recorded: not to control proteins
- exchange of mouse and human TNF monomers (TNF [5]): blocks the exchange of mouse and human monomers
